Test systems include A549 NSCLC; M14 melanoma; NCI-H522 lung; OVCAR-3 ovarian; HOP-62 NSCLC; OVCAR-8 ovarian; UO-31 renal; RXF 393 renal; SK-MEL-28 melanoma.
Common to all, as to assay: DTP human tumour cell line panel, 48 h

Values joined by “and” are separate entries in the source; they are usually repeats but may differ in a detail not shown here. Equal entries are not always repeated.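 Growth conditions: 96-well plates. Treatment: test compound, 48 hours, 5 concentrations. Analysis: linear interpolation between bracketing concentrations; unreached endpoints set to highest concentration. GI50 is the concentration that inhibits growth by half. At the TGI there is no net growth.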

For `CO[C@H](C(=O)O[C@H]1C(=O)N2CCC3CCC1C32C)c1ccccc1` (some centres undefined), the TGI in the experiment on A549 NSCLC, in the experiment with M14 melanoma, in the experiment with NCI-H522 lung, in the experiment with OVCAR-3 ovarian, with HOP-62 NSCLC and in the experiment with OVCAR-8 ovarian was over 100 µM each time. Further, the TGI with UO-31 renal, with RXF 393 renal and in the experiment on SK-MEL-28 melanoma was over 100 µM each time.

As to `CCOC(=O)C1Nc2ccc([N+](=O)[O-])cc2[C@H]2OCC[C@@H]12` (some centres undefined), the TGI with A549 NSCLC, in the experiment with M14 melanoma, in the experiment on NCI-H522 lung, in the experiment on OVCAR-3 ovarian, in the experiment with HOP-62 NSCLC and in the experiment on OVCAR-8 ovarian was over 100 µM throughout. The TGI in the experiment on RXF 393 renal and in the experiment on SK-MEL-28 melanoma was over 100 µM throughout.

Turning to `C/C(=N\NC(=O)C[n+]1ccccc1)c1sc(-c2nc(C)c(/C(C)=N/NC(=O)C[n+]3ccccc3)s2)nc1C`, the TGI with A549 NSCLC, with M14 melanoma, with OVCAR-3 ovarian, in the experiment on HOP-62 NSCLC, with OVCAR-8 ovarian and in the experiment on UO-31 renal was over 100 µM in each case. Besides, the TGI in the experiment with RXF 393 renal and in the experiment with SK-MEL-28 melanoma was over 100 µM throughout.

Consider `CCOc1ccc(NC(=O)/C(Cc2nc3ccccc3[nH]c2=O)=N\O)cc1`, for which the TGI in the experiment on A549 NSCLC, in the experiment on M14 melanoma, in the experiment with NCI-H522 lung, with OVCAR-3 ovarian, in the experiment on HOP-62 NSCLC and in the experiment on OVCAR-8 ovarian was over 100 µM throughout. The TGI in the experiment on UO-31 renal, with RXF 393 renal and in the experiment with SK-MEL-28 melanoma was over 100 µM in each case.

In the case of `Clc1cc2nc[nH]c2cc1Cl`, the total growth inhibition concentration (TGI) in the experiment on A549 NSCLC, with M14 melanoma, with OVCAR-3 ovarian, in the experiment with HOP-62 NSCLC, with OVCAR-8 ovarian and with UO-31 renal was over 100 µM throughout. Also, the TGI in the experiment on SK-MEL-28 melanoma was over 100 µM.

As for `CC(=O)O[C@H]1CC[C@@]2(C)C(=CC[C@@H]3C2CC[C@]2(C)C(=O)NC(=O)CC32)C1` (some centres undefined), the TGI is over 100 µM in the experiment with A549 NSCLC; over 100 µM in the experiment with M14 melanoma; 86.2 µM in the experiment on NCI-H522 lung; over 100 µM in the experiment on HOP-62 NSCLC; over 100 µM in the experiment with OVCAR-8 ovarian; over 100 µM with UO-31 renal. Besides, the results for the TGI with RXF 393 renal and with SK-MEL-28 melanoma were 84.1 µM and over 100 µM, respectively.

For the compound `O=C1C[C@@H]2[C@@H](C=CC23CC3)N1O`, the concentration for total growth inhibition (TGI) in the experiment with A549 NSCLC, in the experiment on M14 melanoma, with NCI-H522 lung, with HOP-62 NSCLC, in the experiment on OVCAR-8 ovarian and with UO-31 renal was over 100 µM each time. In addition, the TGI in the experiment on RXF 393 renal and with SK-MEL-28 melanoma was over 100 µM each time.

In the case of `N#CC1=C(c2ccccc2)NN(Cc2ccccc2)C(c2ccc(Cl)cc2)CC1=O` (centres undefined), the TGI in the experiment on A549 NSCLC was 62.3 µM; in the experiment on NCI-H522 lung it was 38.5 µM; in the experiment with RXF 393 renal, 98.2 µM; in the experiment with SK-MEL-28 melanoma, over 100 µM.

Consider `CC(C)COC(=O)N1N=NC2C3CC(=O)C(O3)C21` (centres undefined), for which the TGI with A549 NSCLC, in the experiment on M14 melanoma, with NCI-H522 lung, with OVCAR-3 ovarian, in the experiment on HOP-62 NSCLC and in the experiment with OVCAR-8 ovarian was over 100 µM in each case. For the same compound, the TGI with UO-31 renal, in the experiment on RXF 393 renal and in the experiment on SK-MEL-28 melanoma was over 100 µM each time.

In the case of `CC(=O)OC1COC(n2c(O)c(N=Nc3ccc([N+](=O)[O-])cc3)c3cc(Br)c([N+](=O)[O-])cc32)C(OC(C)=O)C1OC(C)=O` (centres undefined), the TGI with A549 NSCLC, in the experiment on M14 melanoma, in the experiment with NCI-H522 lung, in the experiment on OVCAR-3 ovarian, with HOP-62 NSCLC and in the experiment with OVCAR-8 ovarian was over 100 µM throughout. Also, the figures for the total growth inhibition concentration (TGI) with RXF 393 renal and with SK-MEL-28 melanoma were 89.8 µM and over 100 µM, respectively.

For the compound `COc1ccc(C(=C(C#N)C#N)c2ccc(OC)cc2)cc1`, the TGI in the experiment on A549 NSCLC, in the experiment with M14 melanoma, with NCI-H522 lung, with OVCAR-3 ovarian, in the experiment with HOP-62 NSCLC and in the experiment on OVCAR-8 ovarian was over 100 µM each time. In addition, the TGI in the experiment with UO-31 renal, in the experiment on RXF 393 renal and in the experiment on SK-MEL-28 melanoma was over 100 µM in each case.

As for `CC1OC(OC23C(=O)CC(C)(O)CC2(O)C=CC2=C3C(=O)c3ccc(C4CC(OC5CCC(OC6CC(O)C(O)C(C)O6)C(C)O5)C(O)C(C)O4)c(O)c3C2=O)CCC1O` (centres undefined), the TGI in the experiment on A549 NSCLC was 82.1 µM and 65.2 µM; in the experiment on M14 melanoma, 32.3 µM and 26.7 µM; in the experiment on NCI-H522 lung, 3.83 µM and 3.5 µM; in the experiment on OVCAR-3 ovarian it was 29.8 µM and 9.07 µM; with HOP-62 NSCLC it was 79.4 µM and 41.4 µM; in the experiment on OVCAR-8 ovarian it was 30.1 µM and 17.6 µM. In addition, the TGI in the experiment on UO-31 renal was 32.2 µM and 32.4 µM; in the experiment on RXF 393 renal it was 26.9 µM and 19.2 µM; with SK-MEL-28 melanoma, 29 µM and 27.3 µM. Moreover, the GI50 in the experiment with OVCAR-3 ovarian is 15.9 µM and 2.86 µM; with OVCAR-8 ovarian it was 16.5 µM and 5.32 µM; in the experiment on RXF 393 renal it was 13.8 µM and 5.87 µM.

On to `CN1CCN2c3ccccc3CC(C#N)(C#N)C2C1` (centres undefined), for which the TGI with A549 NSCLC, in the experiment with M14 melanoma, in the experiment with NCI-H522 lung, with OVCAR-3 ovarian, in the experiment with OVCAR-8 ovarian and in the experiment with UO-31 renal was over 100 µM throughout. The TGI with RXF 393 renal and with SK-MEL-28 melanoma was over 100 µM each time.

For `CN(C)C(=O)C(NCCO)c1ccccc1` (centres undefined), the TGI in the experiment with A549 NSCLC, with M14 melanoma, in the experiment with NCI-H522 lung, in the experiment with OVCAR-3 ovarian, in the experiment with HOP-62 NSCLC and with OVCAR-8 ovarian was over 100 µM each time. The TGI in the experiment with UO-31 renal, with RXF 393 renal and in the experiment with SK-MEL-28 melanoma was over 100 µM in each case.

For the compound `OCC(O)C(O)C(O)c1nn[nH]n1` (centres undefined), the TGI in the experiment on M14 melanoma, in the experiment with NCI-H522 lung, with OVCAR-3 ovarian, in the experiment with HOP-62 NSCLC, in the experiment on OVCAR-8 ovarian and in the experiment with UO-31 renal was over 100 µM throughout.

`CC(C)(C)c1cc(O)c2c(c1O)C(=O)CCC2`: the TGI in the experiment with A549 NSCLC is over 100 µM; in the experiment with M14 melanoma, over 100 µM; with OVCAR-3 ovarian, 76.5 µM; with HOP-62 NSCLC, 91.9 µM; with OVCAR-8 ovarian it was over 100 µM; in the experiment with RXF 393 renal it was 90.4 µM. The TGI in the experiment with SK-MEL-28 melanoma was over 100 µM.

By TGI is commonly meant the concentration at which net growth stops. Broadly, the GI50 is the concentration that inhibits growth by half.

For the origin of these results see PubChem BioAssay (NCI).
